Results reported in patent publication US9040485B2, “Synthetic analogues of neural regeneration peptides” (Curonz Holdings Company Limited, priority 2007, dated 2015).
Entries after “also recorded” stand apart in the source; their conditions may differ. Where a SMILES comes first, the peptide text is derived from it. [ ]: non-standard residue; d: D form. Aib = CC(C)(N)C(=O)O

What was measured:
[1] = test system: cerebellar microexplants; assay: Neuronal survival of cerebellar microexplants exposed to the neurotoxin 3-NP (cells having neurites counted); type: cell-based, Wistar rat; conditions: for neuroprotection after exposure to 3-NP, larger set of data: study of 6 in each group, FIG. 4
Procedure: (§1) Laminated cerebellar cortices of the two hemispheres were explanted from a P3, P4, P7 or P8 Wistar rat, cut into small pieces in GBSS with 0.65% D(+)glucose solution, and triturated by a 0.4 mm gauge needle and subsequently pressed through a 125 μm pore size sieve. The obtained microexplants were centrifuged (60×g) 2 times for a medium exchange into serum-free BSA-supplemented START V-medium (Biochrom). Finally, the microexplants were reconstituted in 500 μl STARTV-medium. For culturing, 38 μl of the cell suspension was incubated for 1 hour on a poly-D-lysine-coated cover slip in a 35 mm Petri dish under an atmosphere comprising 5% CO2 in air and 100% humidity at 34° C. Subsequently, the injuring toxins (as described below), NRP analogues and 1 ml of STARTV-medium were added, and the cultures were evaluated after 2-3 days of culture.
(§2) General methods for toxicological and drug administration experiments were designed such that 1/100 parts of toxin and neuroprotective drug were administered simultaneously to the freshly prepared cerebellar microexplants. Glutamate was prepared as a 50 mM stock solution in MilliQ water while 50 mM 3-nitropropionic acid (3-NP) was pH-adjusted (pH 6.8-7.2) in MilliQ water. The concentrations of the oxidative stress inducing toxin, 3-nitropropionic acid (3-NP), and the excitotoxin, glutamate, in the assay were at concentrations of 0.5 mM each. Lyophilized NRP peptides were reconstituted in PBS or 100 μg/ml human transferrin as a 10 μM stock solution. Subsequently, serial dilutions were made. Cerebellar microexplants were cultivated for 48-72 hours at 34° C., 5% CO2 in air and 100% humidity before they were fixed by increasing amounts of paraformaldehyde (0.4%, 1.2%, 3% and 4%—each treatment 2-3 min).
Using the toxins described above, cerebellar explants were exposed for 24 hours, at the beginning of culturing to dilutions of NRP (survival assay) or NRP and 0.1 μM BrdU (proliferation assay). Subsequently, 80% of the medium was changed without addition of new toxins and NRPs. The cerebellar cultures were fixed as described above after 3 days in vitro. The detection of the incorporated BrdU level is performed as described previously.
For statistical analysis of survival, four fields (each field having an area of 0.65 mm^2) of each fixed cerebellar culture with the highest cell densities were chosen, and cells displaying neurite outgrowth were counted (survival assay).
We exposed cell cultures to vehicle alone (open column) the neurotoxin 3-NP alone (shaded column) to 3-NP plus different concentrations of SEQ ID NO:5 (hatched columns) or to 3-NP plus different concentrations of a non-substituted NRP, SEQ ID NO:1 (dark shaded column). We then counted the numbers of cells having neurites as an indicator of neuronal cell survival.

[2] = test system: rats with peripheral neuropathy induced by pyridoxine; assay: Pyridoxine-induced peripheral neuropathy, precision beam walk motor deficit score; type: in vivo; conditions: for motor deficits (beam walking score) versus vehicle: Experiment I: pyridoxine 800 mg/kg/day 8 days, four days after cessation of pyridoxine
Procedure: Male Sprague-Dawley rats were used and were weighed 278-349 g at the commencement of intoxication with pyridoxine chloride. Before intoxication, rats were habituated to walk across a beam at daily intervals for a week.
Experiment I: Rats were administered 400 mg/kg pyridoxine chloride dissolved in sterile distilled water adjusted to neutral pH intraperitoneally (i.p) twice daily for 8 days and concurrently the peptide having the sequence SEQ ID NO:5 was administered i.p. for at total of 10 days.
Experiment II: Rats were administered a higher dose of pyridoxine (1200 mg/kg/day) over a shorter period of time. Pyridoxine chloride dissolved in sterile distilled water adjusted to neutral pH was administered i.p. to the rats at a dose of 600 mg/kg twice daily for 4 days. Concurrently the peptide having the sequence SEQ ID NO:5 was administered for 4 days. On day 5, rats were tested for motor deficits.
Motor deficits after pyridoxine intoxication and effects of SEQ ID NO:5 were analyzed using a precision beam walk. Seven subsequent foot steps across the 1.5 m long beam were videotaped and according to the positioning of the foot tarsus, these steps were scored between 1 to 4 (1—hind leg tarsus above the beam median; 2—tarsus was touching the upper half of beam medium; 3-tarsus was touching the lower half of beam median and 4—tarsus below the beam median). The score results of all seven steps were added together. A score of 30 was given if the animal was only able to stand on the beam but was unable to walk. In the event of inability to stand on the beam a score of 32 was awarded.
Experiment I: The two concentrations tested for SEQ ID NO:5 were 40 ng/kg/day and 4 μg/kg/day.
Experiment II: Saline and SEQ ID NO:5 at a dose of 4 μg/kg/day were tested.
Motor deficit data were assessed by two-way analysis of variance and Bonferroni post-hoc test. Statistical significance was concluded if p<0.05 between drug treatment cohorts and vehicle treatment.

[3] = test system: SOD-1 mutant (ALS) transgenic mice; assay: Survival of SOD-1 mutant (ALS) transgenic mice, Kaplan-Meier; type: in vivo
Description: In this series of studies, we examined the effects of SEQ ID NO:5 on mice having a genetic defect (SOD-1) that produces a motor neuron disease similar to that in humans with ALS Animals with this disorder show a progressive loss of motor coordination over time, and ultimately die prematurely of the disease. This animal system is useful in studying effects of agents potentially useful in treating ALS in human beings. Thus, results obtained are highly predictive of results obtained in humans with ALS.
Mice were randomly allocated to receive either vehicle or SEQ ID NO:5 from the point of disease onset onwards.
SEQ ID NO:5 treatment (40 μg/kg, given 1/day, i.p. (FIG. 8A) or 0.4 μg/kg, given 1/day, i.p. (FIG. 8B)) was started at the day of onset of the disease.

[4] = test system: cerebellar explants; assay: Storage stability: peptide stored 9 weeks at −20° C. or −4° C., then tested for neuroprotection against 3-NP in cerebellar explants; type: cell-based, Wistar rat; conditions: for stability in storage (retention of neuroprotective activity): 9 weeks, −4° C. compared with −20° C.; for neuroprotective effect against 3-NP after storage at −4° C.: stored 9 weeks at −4° C.; for neuroprotective effect against 3-NP after storage at −4° C. / neuroprotective effect against 3-NP after storage at −20° C.: four concentrations 10^−13 M to 10^−10 M; for neuroprotective effect against 3-NP after storage at −20° C.: stored 9 weeks at −20° C.
Procedure: as §1, §2
To determine the stability of NRPs of this invention in storage, we carried out a series of studies using SEQ ID NO:1. In this study, we synthesized SEQ ID NO:1 and then stored the peptide at temperatures of either −20° C. or −4° C. for nine (9) weeks. We then tested the NRP for efficacy in protecting cerebellar neurons against the neurotoxic effect of 3-NP as described above. Cerebellar explants were treated with vehicle alone (open column), the neurotoxic agent 3-NP alone (light stippled column), or 3-NP plus four concentrations of SEQ ID NO:1 that had been stored for 9 weeks at −20° C., or at −4° C.
In this study, we determined the stability of a substituted NRP, SEQ ID NO:5, in different storage conditions and at different concentrations as with Example 3 above. We synthesized SEQ ID NO:5 and then stored the peptide for 9 weeks at a temperature of either −20° C. or −4° C. We then tested the efficacy of SEQ ID NO:5 in decreasing the neurotoxic effect of 3-NP as described in Examples 2 and 3 above.

[5] = test system: mouse model of experimental autoimmune encephalitis (EAE); assay: MOG-induced experimental autoimmune encephalitis (EAE) model of multiple sclerosis, clinical score of neurological impairment; type: in vivo, mice, strain C57B1/6J; conditions: 0.1 μg peptide/animal (4.16 μg/kg) i.p. daily for 14 days from day 17 after MOG-immunization; outcome 37 days after first treatment; p<0.01 versus treatment day 1 score; FIG. 5

## C[C@H](NC(=O)[C@H](CCCNC(=N)N)NC(=O)[C@H](CCCNC(=N)N)NC(=O)CN)C(=O)N[C@@H](C)C(=O)N1CCC[C@H]1C(=O)NCC(=O)N[C@@H](CCCNC(=N)N)C(=O)NC(C)(C)C(=O)NCC(=O)NCC(N)=O [SEQ ID NO:5, NH2-G^1RRAAPGR-Aib-GG^11-NH2] (H-GRRAAPGR[Aib]GG-NH2)
[1]; 3-NP, FIGS. 1 and 4
  neuroprotection compared with the unsubstituted NRP: more neuroprotective than the unsubstituted NRP
[1]; FIG. 1, n=4
  concentration of maximal effect on 3-NP-induced neurotoxicity: about 100 fM
  threshold concentration for decrease of 3-NP-induced neurotoxicity: below 1 fM
[1]; different concentrations, 0.5 mM 3-NP, p<0.001, n=4 each, FIG. 1
  decrease of 3-NP-induced neurotoxicity (cells having neurites): decreased 3-NP-induced neurotoxicity in a concentration dependent fashion
[1]
  neuroprotection after exposure to 3-NP, larger set of data: protect neurons from dying
[2]; Experiment I: peptide 4 μg/kg/day, day 16 after start of pyridoxine-intoxication, p<0.05, FIG. 6
  motor deficits (beam walking score) versus control group: significantly less motor deficits than the control group
[2]; peptide 40 ng/kg/day i.p. 10 days, p<0.05, FIG. 6
  motor deficits (beam walking score) versus vehicle: attenuated motor deficits
[2]; peptide 4 μg/kg/day i.p. 10 days, p<0.01, FIG. 6
  motor deficits (beam walking score) versus vehicle: attenuated motor deficits
[2]; Experiment II: pyridoxine 1200 mg/kg/day 4 days, peptide 4 μg/kg/day 4 days, day 5, p<0.001, FIG. 7
  motor deficits (beam walking score) versus control group: highly significantly attenuation of motor deficits
[2]; rats, 4 μg/kg/day
  tolerability: well tolerated
[3]; Study 1, 40 μg/kg 1/day i.p., vehicle all dead by day 143, FIG. 8A
  longest survival of treated mice: up to 156 days
[3]; Study 1, 40 μg/kg 1/day i.p., vehicle day 120, FIG. 8A, p<0.01
  day at which treated mice began dying: 131 days
[3]; Study 2, 0.4 μg/kg 1/day i.p., vehicle all dead at day 154, FIG. 8B
  longest survival of treated mice: up to 189 days
[3]; Study 2, 0.4 μg/kg 1/day i.p., vehicle day 120, FIG. 8B
  day at which treated mice began to die: 125 days
[3]; two studies, 40 μg/kg or 0.4 μg/kg 1/day i.p. from disease onset, FIGS. 8A and 8B
  lifetime of mice suffering from the ALS-like disorder: significant extension of lifetime
[4]
  stability in storage (retention of neuroprotective activity): not statistically different; also recorded: stable under storage conditions
  neuroprotective effect against 3-NP after storage at −4° C.: retained its neuroprotective effect
  neuroprotective effect against 3-NP after storage at −20° C.: neuroprotective effects similar to those found for SEQ ID NO:1

## AcNH-RRAAPGRAGG^11-NH2 (Ac-RRAAPGRAGG-NH2) [SEQ ID NO: 7]
[1]; 3-NP
  neuroprotection in in vitro model of neural toxicity induced by 3-NP: neuroprotective

## H-GR[dR]AAPGRAGG-NH2 [SEQ ID NO: 8]
[1]; 3-NP
  neuroprotection in in vitro model of neural toxicity induced by 3-NP: neuroprotective

## NH2-G^1RRAAPGRAGG^11-NH2 (H-GRRAAPGRAGG-NH2; listed as Homo sapiens) [SEQ ID NO:1, un-substituted comparator, reference compound]
[1]; peptide at 10 fM or 1 pM, 0.5 mM 3-NP, p<0.001, n=4, FIG. 1
  decrease of neurotoxic effects of 3-NP (cells having neurites): significantly decreased the neurotoxic effects of 3-NP
[1]
  neuroprotection after exposure to 3-NP, larger set of data: protect neurons from dying
[4]
  stability in storage (retention of neuroprotective activity): loses activity over the 9-week period
  neuroprotective effect against 3-NP after storage at −4° C.: little decrease in neurotoxic effect of 3-NP
  neuroprotective effect against 3-NP after storage at −20° C.: neuroprotective effects at all concentrations tested

## NH2-G^1RRAAPGRANG^11-NH2 (H-GRRAAPGRANG-NH2) [SEQ ID NO: 6]
[1]; 3-NP
  neuroprotection in in vitro model of neural toxicity induced by 3-NP: neuroprotective

## NH2—REGRRDAPGRAGG-NH2 (H-REGRRDAPGRAGG-NH2) [SEQ ID NO: 12]
[5]
  therapeutic effect on EAE clinical score (severity of motoric impairment): significant therapeutic effect
